Source: ChEMBL document CHEMBL3785043, “Exploring the purine core of 3'-C-ethynyladenosine (EAdo) in search of novel nucleoside therapeutics” (Bioorg Med Chem Lett, 2016)
Activity calls are given as the source filed them. The calls are words filed in the database; no cut-off is given here.

Experiments:
Influenza A virus [1] = test: Antiviral activity against Influenza virus A H3N2 at 100 uM; assay type: functional, organism-based
Influenza B virus = test: Antiviral activity against Influenza virus B at 100 uM; assay type: functional, organism-based
[2] = system: Mammalian orthoreovirus 1; test: Antiviral activity against Reovirus 1 at 100 uM; assay type: functional
Punta Toro virus = test: Antiviral activity against Punta Toro virus at 100 uM; assay type: functional, organism-based
[3] = system: Human immunodeficiency virus 1; test: Antiviral activity against HIV1 3B infected in human MT4 cells at 100 uM preincubated with cells for 30 mins followed by HIV inoculation measured after 4 to 5 days by microscopic analysis; assay type: functional, organism-based
[4] = system: Human immunodeficiency virus 1; test: Antiviral activity against HIV 1 NL4-3 infected in human MT4 cells at 100 uM preincubated with cells for 30 mins followed by HIV inoculation measured after 4 to 5 days by microscopic analysis; assay type: functional, organism-based
[5] = system: Human immunodeficiency virus 2; test: Antiviral activity against HIV2 ROD infected in human MT4 cells at 100 uM preincubated with cells for 30 mins followed by HIV inoculation measured after 4 to 5 days by microscopic analysis; assay type: functional, organism-based; conditions: ISOLATE ROD
L1210 = test: Cytostatic activity against mouse L1210 cells after 48 hrs by Coulter counter method; assay type: functional, cell-based; conditions: L1210, 48 h
CCRF-CEM = test: Cytostatic activity against human CEM cells after 72 hrs by Coulter counter method; assay type: functional, cell-based
Sindbis virus = test: Antiviral activity against Sindbis virus at 100 uM; assay type: functional, organism-based
HeLa = test: Cytostatic activity against human HeLa cells after 72 hrs by Coulter counter method; assay type: functional, cell-based
Human alphaherpesvirus 1 [6] = test: Antiviral activity against Aciclovir-resistant thymidine kinase-deficient HSV-1 KOS at 100 uM; assay type: functional, organism-based
Human betaherpesvirus 5 [7] = test: Antiviral activity against Human cytomegalovirus AD169 at 100 uM; assay type: functional, organism-based
Human betaherpesvirus 5 [8] = test: Antiviral activity against Human cytomegalovirus Davis at 100 uM; assay type: functional, organism-based
[9] = system: Vesicular stomatitis virus; test: Antiviral activity against VSV at 100 uM; assay type: functional, organism-based
Human alphaherpesvirus 1 [10] = test: Antiviral activity against HSV-1 KOS at 100 uM; assay type: functional, organism-based
Human alphaherpesvirus 2 [11] = test: Antiviral activity against HSV-2 lyons at 100 uM; assay type: functional, organism-based
Human alphaherpesvirus 2 [12] = test: Antiviral activity against HSV-2 G at 100 uM; assay type: functional, organism-based; conditions: strain G
Vaccinia virus = test: Antiviral activity against Vaccinia virus Lederle; assay type: functional, organism-based; conditions: Orthopoxvirus vaccinia
Human adenovirus 2 = test: Antiviral activity against Adenovirus 2 at 100 uM; assay type: functional, organism-based
[13] = system: Respiratory syncytial virus; test: Antiviral activity against Respiratory syncytial virus long at 100 uM; assay type: functional, organism-based
Coxsackievirus B4 = test: Antiviral activity against Coxsackie B4 virus at 100 uM; assay type: functional, organism-based
Human respirovirus 3 = test: Antiviral activity against parainfluenza virus 3 at 100 uM; assay type: functional, organism-based
Influenza A virus [14] = test: Antiviral activity against Influenza virus A H1N1 at 100 uM; assay type: functional, organism-based
[15] = molecular target: Adenosine receptor A3 (Homo sapiens) (UniProt P0DMS8); test: Agonist activity at adenosine A3 receptor (unknown origin) assessed as inhibition of forskolin-stimulated adenylyl cyclase activity at 10 uM; assay type: functional
Sequence of Adenosine receptor A3 (Homo sapiens) (P0DMS8 whole entry): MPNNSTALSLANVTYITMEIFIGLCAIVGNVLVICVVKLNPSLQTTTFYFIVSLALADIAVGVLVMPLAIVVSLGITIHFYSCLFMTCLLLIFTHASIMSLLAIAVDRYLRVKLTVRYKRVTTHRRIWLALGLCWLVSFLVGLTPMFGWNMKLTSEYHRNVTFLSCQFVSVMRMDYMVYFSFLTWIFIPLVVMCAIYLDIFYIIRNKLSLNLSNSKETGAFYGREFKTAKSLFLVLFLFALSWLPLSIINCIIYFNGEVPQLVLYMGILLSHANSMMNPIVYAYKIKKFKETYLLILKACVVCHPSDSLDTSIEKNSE

Human alphaherpesvirus 3 [16] = test: Antiviral activity against VZV Oka; assay type: functional, organism-based; conditions: Human alphaherpesvirus 3, strain Oka vaccine
Human alphaherpesvirus 3 [17] = test: Antiviral activity against thymidine kinase deficient VZV 07-1; assay type: functional, organism-based; conditions: Human alphaherpesvirus 3, 07-1

## C#C[C@@]1(O)[C@@H](CO)O[C@@H](n2cnc3c(N)ncnc32)[C@@H]1O
Influenza A virus [1]
  Activity: inactive
Influenza B virus
  Activity: inactive
[2]
  Activity: inactive
Punta Toro virus
  Activity: inactive
[3]
  Activity: inactive
[4]
  Activity: inactive
[5]
  Activity: inactive
L1210
  IC50: 0.73 µM
CCRF-CEM
  IC50: 0.61 µM
Sindbis virus
  Activity: inactive
HeLa
  IC50: 0.29 µM
Human alphaherpesvirus 1 [6]
  Activity: inactive
Human betaherpesvirus 5 [7]
  Activity: inactive
Human betaherpesvirus 5 [8]
  Activity: inactive
[9]
  Activity: inactive
Human alphaherpesvirus 1 [10]
  Activity: inactive
Human alphaherpesvirus 2 [11]
  Activity: inactive
Human alphaherpesvirus 2 [12]
  Activity: inactive
Vaccinia virus
  EC50: 0.35 µM
Human adenovirus 2
  Activity: inactive
[13]
  Activity: inactive
Coxsackievirus B4
  Activity: inactive
Human respirovirus 3
  Activity: inactive
Influenza A virus [14]
  Activity: inactive

## C#C[C@@]1(O)[C@@H](CO)O[C@@H](n2cnc3c(NCc4cccc(Cl)c4)nc(Cl)nc32)[C@@H]1O
Influenza A virus [1]
  Activity: inactive
Influenza B virus
  Activity: inactive
[2]
  Activity: inactive
Punta Toro virus
  Activity: inactive
[3]
  Activity: inactive
[4]
  Activity: inactive
[5]
  Activity: inactive
L1210
  IC50: 50 µM
CCRF-CEM
  IC50: 22 µM
Sindbis virus
  Activity: inactive
HeLa
  IC50: 43 µM
[15]
  inhibition: 48%
Human alphaherpesvirus 3 [16]
  EC50: 4.68 µM
Human alphaherpesvirus 1 [6]
  Activity: inactive
Human betaherpesvirus 5 [7]
  Activity: inactive
Human betaherpesvirus 5 [8]
  Activity: inactive
[9]
  Activity: inactive
Human alphaherpesvirus 1 [10]
  Activity: inactive
Human alphaherpesvirus 2 [11]
  Activity: inactive
Human alphaherpesvirus 2 [12]
  Activity: inactive
Human alphaherpesvirus 3 [17]
  EC50: 4.68 µM
Human adenovirus 2
  Activity: inactive
[13]
  Activity: inactive
Coxsackievirus B4
  Activity: inactive
Human respirovirus 3
  Activity: inactive
Influenza A virus [14]
  Activity: inactive
